In patent US10428048B2, “Androgen receptor antagonists” (CITY OF HOPE, priority 2015, dated 2019):
Entries after “also recorded” stand apart in the source; their conditions may differ. Where a name gives a salt, the structure may show the parent alone. Read-outs that look alike come from different tables or passages of the source.

What was measured:
[1] = test system: LNCaP cells; assay: LNCaP prostate cancer cell growth (DAPI staining); assay type: cell-based, human; details: for Inhibition of LNCaP cell growth in culture: AR-dependent LNCaP cells; for inhibition at 0.3 µM: Homo sapiens, LNCaP, read-out: LNCaP growth inhibition at 300 nM
Description: (§1) For growth curves, cells were transferred to charcoal-stripped media three days before they were split and plated at a density of approximately 20,000 cells/well in 48 well plates, in quadruplicate. The assay was repeated three times. The following day, medium with the indicated drugs was added to the cells. Proliferation was determined by measuring the DNA content of the cells in each well. Each day, the cells were fixed in 100% cold methanol, followed by staining for 5 min at RT with 0.2 ng/mL 4′,6-diamidino-2-phenylindole (DAPI) in PBS. The cells were washed with PBS, then read on a fluorescence plate reader (FPR) using 365/439 excitation/emission wavelengths. A student's T test was used to determine significant differences among populations.

[2] = Toxicity studies, MTD determination; details: in vivo
Description: In DMSO/PBS formulation, with MTD single dose: IV: ˜1 mg/kg; PO (oral): not determined due to poor absorption; and IP: ˜5 mg/kg. With MTD daily dosing: IP: ˜1 mg/kg. In Beta cyclodextrin formulation: MTD single dose: IV: not determined; PO (oral); ˜200 mg/kg; IP: >10 mg/kg. In MTD daily dosing: IP: at least 5 mg/kg; PO: at least 100 mg/kg.

[3] = test system: other nuclear receptors; assay: Specificity for AR versus other nuclear receptors; assay type: cell-based; details: P24 0.1, 0.3, 1 μM; P7 0.3, 1, 3 μM
[4] = test system: AR target genes; assay: Inhibition of AR activity in vivo (qRT-PCR of prostate tissue); set-up: species or system Mice; details: 5 mg/kg via osmotic pump for 4 weeks
Description: Total RNA was isolated from homogenized prostate or tumor tissue using an RNAeasy kit (Qiagen). RNA was reverse-transcribed (MMLV-RT; Invitrogen), and the expression of androgen-regulated genes was assessed by qPCR using a StepOne Real Time PCR System (Applied Biosystems), using SYBR green (Invitrogen) as the detecting dye and Rox (Invitrogen) as the reference dye. Differences between treated (x) and no DHT control (y) samples were normalized to RPL19 transcript levels (i.e., androgen-unresponsive) and determined with the following calculation: (2[Ctxgene1−Ctygene1])/(2[CtxRPL19−CtyRPL19]).

[5] = test system: 22Rv1 cells; assay: 22Rv1 cell growth in culture; assay type: cell-based, human; details: androgen-independent, AR splice variant expressing 22Rv1 cells; tosylate
Description: as §1

[6] = test system: enzalutamide (enz)-resistant LNCaP cells; assay: Enzalutamide-resistant LNCaP cell growth in culture; assay type: cell-based, human
[7] = P24 microsomal analysis, human microsomes; assay type: in vitro ADME
Description: (§2) FIG. 16. P24 microsomal analysis.
(§3) As depicted in FIG. 16, the concentration of compound. P24 solution tested with incubation with microsomes.

[8] = P24 microsomal analysis, mouse microsomes; assay type: in vitro ADME
Description: as §2, §3

[9] = Further PK studies, single dose, DMSO/PBS or BCD formulation; details: blood at 0.5, 2 and 24-hrs; for Drug level in blood after administration, BCD formulation: 25 mg/kg single dose; for Drug level in blood after administration, DMSO/PBS formulation: 1 mg/kg single dose
Description: Treatment: 1-2 mice with single dose and blood at 0.5, 2 and 24-hrs.

[10] = Solubility in solvents and formulations
[11] = ip, Beta cyclodextrin formulation, IP, daily dosing, read-out: MTD daily dosing IP
[12] = ip, Beta cyclodextrin formulation, IP, single dose, read-out: MTD single dose IP
[13] = ip, DMSO/PBS formulation, IP, daily dosing, read-out: MTD daily dosing IP
[14] = ip, DMSO/PBS formulation, IP, single dose, read-out: MTD single dose IP
[15] = iv, DMSO/PBS formulation, IV, single dose, read-out: MTD single dose IV
[16] = po, Beta cyclodextrin formulation, PO, daily dosing, read-out: MTD daily dosing PO
[17] = po, Beta cyclodextrin formulation, PO, single dose, read-out: MTD single dose PO (oral)
[18] = 100 ng/ml P24, absence of NADPH
[19] = 100 ng/ml P24, presence of NADPH

| SMILES | Inhibition of LNCaP cell growth in culture ([1]; tosylate) | inhibition at 0.3 µM [1] [%] | MTD [2, 11] [mg/kg] | MTD [2, 12] [mg/kg] | MTD [2, 13] [mg/kg] | MTD [2, 14] [mg/kg] | MTD [2, 15] [mg/kg] | MTD [2, 16] [mg/kg] | MTD [2, 17] [mg/kg] | Activity against other nuclear receptors [3] | Inhibition of 22Rv1 cell growth in culture [5] | Inhibition of growth of enzalutamide-resistant LNCaP cells [6] | Drug level in blood after administration, BCD formulation [9] | Drug level in blood after administration, DMSO/PBS formulation [9] | further results |
| --- | --- | --- | --- | --- | --- | --- | --- | --- | --- | --- | --- | --- | --- | --- | --- |
| Cc1cccnc1-n1c(C)cc(/C=C/c2ccc3cc(N(C)C)ccc3[n+]2C)c1C [P24, (E)-6-Dimethylamino-2-(2-(2,5-dimethyl-1-(3-methylpyridin-2-yl)-1H-pyrrol-3-yl)ethenyl)-1-methylquinolinium tosylate] | inhibit the growth; also recorded: inhibited | 100 | ≥ 5 | > 10 | ~1 | ~5 | ~1 | ≥ 100 | ~200 | little activity | inhibit the growth; also recorded: inhibited | inhibit the growth | significant spike | almost no drug | Inhibition of AR target genes in prostate tissue (qRT-PCR) [4]: inhibition of AR target genes; Breakdown in microsomes without NADPH (chemical stability) [7, 18]: lack of breakdown; Metabolism in microsomes, NADPH dependence [7, 19]: NADPH dependent; Breakdown in microsomes without NADPH (chemical stability) [8, 18]: lack of breakdown; Metabolism in microsomes, NADPH dependence [8, 19]: NADPH dependent |
| CNC(=O)c1ccc(N2C(=S)N(c3ccc(C#N)c(C(F)(F)F)c3)C(=O)C2(C)C)cc1F [enzalutamide, reference compound] | – | – | – | – | – | – | – | – | – | – | – | – | – | – | Inhibition of LNCaP cell growth in culture [1]: inhibited |
| Cc1cc(/C=C/c2ccc3cc(N(C)C)ccc3[n+]2C)c(C)[nH]1.Cc1ccc(S(=O)(=O)[O-])cc1 [P7, (E)-6-Dimethylamino-2-(2-(2,5-dimethyl-1H-pyrrol-3-yl)ethenyl)-1-methylquinolinium tosylate] | inhibit the growth; also recorded: inhibited | 100 | ≥ 5 | > 10 | ~1 | ~5 | ~1 | ≥ 100 | ~200 | little activity | inhibit the growth; also recorded: inhibited | inhibit the growth | more continuous peak | almost no drug | solubility ([10]; DMSO, organic solvent or mixture): ~10000 µg/mL; solubility ([10]; acetonitrile, organic solvent or mixture): < 5000 µg/mL; solubility ([10]; beta cyclodextrin, aqueous with cosolvent or surfactant or cyclodextrin): ~5000 µg/mL; solubility ([10]; buffer B (aqueous), aqueous buffer): < 5000 µg/mL; solubility ([10]; ethanol, organic solvent or mixture): ~5000 µg/mL; solubility ([10]; gamma cyclodextrin, aqueous with cosolvent or surfactant or cyclodextrin): ~5000 µg/mL |
